Test results: paper PMC7600266, “Caerin 1 Antimicrobial Peptides that Inhibit HIV and Neisseria May Spare Protective Lactobacilli” (Antibiotics, 2020)
Entries after “also recorded” stand apart in the source; their conditions may differ.

Assays:
[1] = system: Lactobacillus rhamnosus, ATCC 39595; experiment: Bacterial growth assay, Lactobacillus rhamnosus; format: cell-based; details: for reduction of L. rhamnosus growth: vs no-peptide control; for inhibition of L. rhamnosus growth at highest concentration: 50 µM peptide (50 µm [sic]), one-way ANOVA with Tukey's post hoc test; for inhibition of L. rhamnosus growth, result in words: peptide tested at 0.4 or 0.8 to 50 µM; for viability as measured by 24-h growth of L. rhamnosus: range of concentrations 0.4–25 µM
Procedure: (§1) Bacterial strains were obtained from the American Type Culture Collection (Lactobacillus crispatus, ATCC® 33197™; Lactobacillus rhamnosus, ATCC® 39595™; Neisseria lactamica (ATCC® 23970™). Growth assays were conducted to determine the concentrations at which each peptide inhibited the growth of the three bacterial species. The Lactobacillus bacteria were grown in de Man, Rogosa, and Sharpe (MRS) broth and the N. lactamica in Fastidious Broth. Bacterial cells were cultured in broth for 24 to 48 h until they reached an optical density of about 0.1 O.D. units at 630 nm and diluted to achieve a concentration of 10^6 cells per mL. The peptides were serially diluted with sterile water to reach peptide concentrations of 0.4, 0.8, 1.6, 3.12, 6.25, 12.5, 25, and 50 µM final concentrations in culture. The bacterial cells at 10^6 cells/mL and the peptides were plated in triplicate in a 96-well plate. Included was a negative control for growth (three to five replicates of bacteria plus penicillin-streptomycin), a positive control for growth (three to five replicates of bacteria plus water), and a blank (three to five replicates of broth plus water) to ensure the broth was not contaminated. Bacterial cells were plated in 50 µL of broth, and each dilution of peptides was added in a volume of 50 µL to achieve a total volume of 100 µL. For the positive control, 50 µL of sterile water was added to 50 µL of cells in broth. For the negative control, 50 µL of the antibiotic solution was added to 50 µL of cells in broth. The O.D. of each well was recorded before and after a 24-h incubation period at 37 °C using a Biotek ELx808 reader (Biotek, Winooski, VT, USA). Data for representative experiments are expressed as average O.D. ± standard error of the mean at each peptide concentration. To express data from replicate experiments, the average as percent growth in comparison with the positive (no peptide) control set at 100% for the range of concentrations from 6.25–50 µM is shown. […] A p-value of less than 0.05 was considered significant.

HIV = details: cited from earlier work; for inhibition of HIV infection, result in words: percent HIV infection of target T cells, 6.25–25 µM, replotted from a previous publication
Source text: Its sequence is shown here for comparison with the synthetically modified caerin 1.1 peptide. Amino acid modifications to the caerin 1.1 and to the caerin 1.9 peptides are shown in bold type with gray shading. […] Thus, we first tested these four peptides for effects on growth of L. rhamnosus. […] To evaluate both parameters at once, we plotted the patterns of inhibition of HIV infection from a previous publication on the same axes as the new data for effects on L. rhamnosus and L. crispatus growth. […] Among all of the ...

[2] = system: T lymphocytes or endocervical cell lines; details: cited from earlier work
bacteria = details: cited from earlier work; for antibacterial activity, previously shown: control peptides, for caerin 1.3 against most of the bacteria tested
Source text: Its sequence is shown here for comparison with the synthetically modified caerin 1.1 peptide. Amino acid modifications to the caerin 1.1 and to the caerin 1.9 peptides are shown in bold type with gray shading. All of the peptides studied have many simil ...

[3] = system: Lactobacillus crispatus, ATCC 33197; experiment: Bacterial growth assay, Lactobacillus crispatus; format: cell-based; details: 24 h, 37 °C, O.D. 630 nm; for inhibition of L. crispatus growth at highest concentration: 50 µM peptide, MRS broth; for inhibition of L. crispatus growth at lower concentrations: concentrations of 25 µM or less; for effect on L. crispatus growth, result in words: peptide tested at 0.4 or 0.8 to 50 µM
Procedure: as §1

[4] = system: Neisseria lactamica (ATCC 23970); experiment: Bacterial growth assay, Neisseria lactamica; format: cell-based; details: tested twice; 0.8 to 50 µM; 24 h, 37 °C
Procedure: Bacterial strains were obtained from the American Type Culture Collection (Lactobacillus crispatus, ATCC® 33197™; Lactobacillus rhamnosus, ATCC® 39595™; Neisseria lactamica (ATCC® 23970™). Growth assays were conducted to determine the concentrations at which each peptide inhibited the growth of the three bacterial species. The Lactobacillus bacteria were grown in de Man, Rogosa, and Sharpe (MRS) broth and the N. lactamica in Fastidious Broth. Bacterial cells were cultured in broth for 24 to 48 h until they reached an optical density of about 0.1 O.D. units at 630 nm and diluted to achieve a concentration of 10^6 cells per mL. The peptides were serially diluted with sterile water to reach peptide concentrations of 0.4, 0.8, 1.6, 3.12, 6.25, 12.5, 25, and 50 µM final concentrations in culture. The bacterial cells at 10^6 cells/mL and the peptides were plated in triplicate in a 96-well plate. […] The O.D. of each well was recorded before and after a 24-h incubation period at 37 °C using a Biotek ELx808 reader (Biotek, Winooski, VT, USA). Data for representative experiments are expressed as average O.D. ± standard error of the mean at each peptide concentration. […]

[5] = 25 µM peptide, MRS broth, 24 h, 37 °C, O.D. 630 nm

Row | Substance | reduction of L. rhamnosus growth [1, 5] | inhibition of L. rhamnosus growth at highest concentration ([1]; 24 h, 37 °C, O.D. 630 nm) | inhibition of L. rhamnosus growth, result in words ([1]; 24 h, 37 °C, O.D. 630 nm) | viability as measured by 24-h growth of L. rhamnosus [1] | inhibition of HIV (transmission), previous studies (HIV) | inhibition of HIV infection, result in words (HIV) | toxicity to T lymphocytes or endocervical cell lines [2] | antibacterial spectrum (bacteria) | average bacterial growth of L. rhamnosus ([1]; 25 µM peptide, percent growth vs no-peptide control set at 100%, 10^6 cells/mL, MRS broth, 24 h, 37 °C, O.D. 630 nm, average of replicate experiments) | inhibition of L. crispatus growth at highest concentration [3] | inhibition of L. crispatus growth at lower concentrations [3] | effect on L. crispatus growth, result in words [3] | inhibition of N. lactamica growth, comparison in words [4] | antibacterial activity, previously shown (bacteria)
1 | GLFGILGSVAKHVLPHVIPVVAEHL-NH2 [caerin 1.20, caerin 1 antimicrobial peptide, origin L. caerulea/L. splendida] | 40–55% | significantly inhibited growth | slightly more inhibitory against L. rhamnosus than caerin 1.9 | remained quite high | very effective inhibitors of HIV | slightly less effective in the inhibition of HIV | limited toxicity | wide-spectrum anti-bacterial agents |  |  |  |  |  | 
2 | GLFGVLGSIAKHLLPHVVPVIAEKL-NH2 [caerin 1.9 sm, synthetic analog of caerin 1.9 with a single amino acid change] |  |  | inhibited the growth of L. rhamnosus more than caerin 1.9; also recorded: inhibited growth to a greater extent than the previous four |  |  | equal or greater inhibition of HIV infection than caerin 1.9 |  |  |  |  |  |  |  | 
3 | GLFGVLGSIAKHVLPHVVPVIAEKL-NH2 [caerin 1.9, caerin 1 antimicrobial peptide, origin L. chloris] |  | significantly inhibited growth | least apparent inhibition of growth of both tested lactobacilli | remained quite high | very effective inhibitors of HIV | best profile of inhibition of HIV | limited toxicity | wide-spectrum anti-bacterial agents | about 83% | inhibitory | almost no inhibition | least apparent inhibition of growth of both tested lactobacilli |  | 
4 | GLLGVLGSVAKHVLPHVVPVIAEHL-NH2 [caerin 1.2, caerin 1 antimicrobial peptide, origin L. caerulea] | 40–55% | significantly inhibited growth |  | remained quite high | very effective inhibitors of HIV | effective inhibitors of HIV infection | limited toxicity | wide-spectrum anti-bacterial agents |  | inhibitory | almost no inhibition |  | less effective against N. lactamica than caerin 1.9 and caerin 1.10 | 
5 | GLLSSLSSVAKHVLPHVVPVIAEHL-NH2 [caerin 1.4, caerin 1 antimicrobial peptide, origin L. caerulea, L. gilleni; control peptide] |  |  | very limited inhibition of both species of lactobacilli; also recorded: almost no inhibition at any dose tested |  |  | inhibited HIV less than caerin 1.9 |  |  |  |  |  | largely unaffected; also recorded: very limited inhibition of both species of lactobacilli |  | reduced antibacterial activity
6 | GLLSVLGSVAKHVLPHVVPVIAAAL-NH2 [caerin 1.1 mod 7, synthetically modified caerin 1.1 peptide] |  |  | inhibited the growth of L. rhamnosus more than caerin 1.9; also recorded: inhibited growth to a greater extent than the previous four |  |  | equal or greater inhibition of HIV infection than caerin 1.9 |  |  |  |  |  |  |  | 
7 | GLLSVLGSVAKHVLPHVVPVIAEHL-NH2 [caerin 1.1, antimicrobial peptide from Litoria caerulea, reference compound] |  |  |  |  | less effective in the inhibition of HIV transmission than other caerin family peptides |  |  | wide-spectrum anti-bacterial agents |  |  |  |  |  | 
8 | GLLSVLGSVAKHVLPHVVPVIAEKL-NH2 [caerin 1.10, caerin 1 antimicrobial peptide, origin L. splendida] | 40–55% | significantly inhibited growth |  | remained quite high | very effective inhibitors of HIV | effective inhibitors of HIV infection | limited toxicity | wide-spectrum anti-bacterial agents |  | no inhibition |  |  |  | 
9 | GLLSVLGSVAQHVLPHVVPVIAEHL-NH2 [caerin 1.3, caerin 1 antimicrobial peptide, origin L. caerulea; control peptide] |  |  | very limited inhibition of both species of lactobacilli; also recorded: almost no inhibition at any dose tested |  |  | inhibited HIV less than caerin 1.9 |  |  |  |  |  | largely unaffected; also recorded: very limited inhibition of both species of lactobacilli |  | reduced antibacterial activity
